Converted amounts (≈) assume the structure as drawn. “And” between values parts separate entries of the source, which are not always exact repeats. Equal values may be shown once. “Also recorded” adds a separate entry of the source. Read-outs that look alike come from different tables or passages of the source.
Legend:
DdlA = DdlA (Mycobacterium tuberculosis, UniProt P9WP31); format: biochemical; settings: for Kcat: Vmax divided by enzyme concentration
From the text: The activity of DdlA was monitored by coupling with pyruvate kinase (PK) and lactate dehydrogenase (LDH; Sigma-Aldrich) to detect the release of ADP. […] The assay system was monitored via a Perkin Elmer EnSpire® 2300 Multimode Plate Reader (PerkinElmer, MA, United States) by detecting decreases in NADH.
The calibration curve of the ultraviolet absorption of NADH at 340 nm to its concentrations was fabricated before studying the enzymatic kinetics of DdlA. The kinetic parameters of DldA were determined using serial twofold dilutions of one substrate (from 1 mM to 31.25 μM), while the other substrate was held constant at 1 mM. Km and Vmax values were calculated using non-linear regression of the Michaelis-Menten model in GraphPad Prism 5.0 (GraphPad Software, Inc., San Diego, CA, United States). Kcat was calculated based on the molecular weight of DdlA (42 kDa).

Mtb H37Rv [1] = assay: microbe, parasite or virus in culture; format: cell-based, Mycobacterium tuberculosis; settings: for MIC: Mycobacterium tuberculosis, 336 h
HepG2 cells [2] = assay: Cytotoxicity assay (MTT), HepG2; settings: for SI: HepG2 TC50 relative to H37Rv MIC
Mtb H37Rv [3] = assay: Mouse model of TB, pulmonary bacterial load; format: in vivo, Balb/c mice; settings: 25 mg/kg by gavage, 15 administrations (five times per week); vehicle 5.58
From the text: Specific pathogen-free (SPF) male Balb/c mice were purchased from the Institute of Laboratory Animal Sciences at the Chinese Academy of Medical Sciences and Peking Union Medical College. All animal experiments were supervised and approved by the Institutional Animal Care and Use Committee of the Institute of Medicinal Biotechnology. Twenty-six mice (6–8 weeks old, 18–20 g) were infected with Mtb H37Rv (about 100 CFU) via the 099C A4224 Inhalation Exposure System (Glas-col, Terre Haute, IN, United States). At 15 days after inoculum, two mice were anesthetized and decapitated to confirm the success of infection. DCS, INH, IMB-0283, and vehicle (0.5% CMC-Na) were administered through a gavage route (six mice per group). All chemicals were dosed at 25 mg/kg. Mice were sacrificed after 15 administrations (five times per week) to quantify pulmonary bacterial loads via counting CFUs.

HepG2 cells [4] = system: HepG2 cells
[5] = system: Vero green-monkey kidney cells; assay: Cytotoxicity assay (MTT), Vero; settings: Vero TC50 relative to H37Rv MIC
Mtb DdlA = Mtb DdlA (Mycobacterium tuberculosis, UniProt P9WP31); assay: DdlA inhibition, PK/LDH-coupled assay detecting ADP release (NADH decrease); format: biochemical
clinical Mtb strains = assay: microbe, parasite or virus in culture; format: cell-based, Mycobacterium tuberculosis; settings: for MIC: Mycobacterium tuberculosis
[6] = system: Vero green-monkey kidney cells; settings: 2 days
Mtb H37Rv [7] = assay: Morphology of Mtb by scanning electron microscopy; format: cell-based, Mycobacterium tuberculosis; settings: 0.35 μg/mL
C[C@@H](N)C(=O)O = assay: purified protein, by the assay type; settings: pH 8.0; 37.0 °C
[8] = substrate of DdlA, other substrate at 1 mM
[9] = Mtb H37Rv, 2 weeks at 37°C, read-out: MIC
[10] = Dixon plot, Figure 4 panels A, C, substrate ATP inferred, read-out: Ki for DdlA (ATP) (converted)
[11] = Dixon plot, competing substrate ATP, read-out: Ki for DdlA (ATP) (converted)

Mtb DdlA, sequence (P9WP31 whole entry, looked up): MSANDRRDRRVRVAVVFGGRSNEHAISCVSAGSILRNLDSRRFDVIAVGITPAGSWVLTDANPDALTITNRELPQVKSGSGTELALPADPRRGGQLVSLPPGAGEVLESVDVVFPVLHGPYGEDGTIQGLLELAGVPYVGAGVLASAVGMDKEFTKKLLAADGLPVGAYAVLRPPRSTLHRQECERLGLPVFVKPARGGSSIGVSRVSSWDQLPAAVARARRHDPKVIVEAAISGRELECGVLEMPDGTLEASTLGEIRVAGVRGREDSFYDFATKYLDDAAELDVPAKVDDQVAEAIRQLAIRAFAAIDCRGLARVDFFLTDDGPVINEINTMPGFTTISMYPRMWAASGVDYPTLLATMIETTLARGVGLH
DdlA, sequence (P9WP31 whole entry, looked up): as above

Compound: Nc1ncnc2c1ncn2[C@@H]1O[C@H](COP(=O)(O)OP(=O)(O)OP(=O)(O)O)[C@@H](O)[C@H]1O [ATP]
- Kcat (DdlA): 405.8 min^–1 and 383.00 ± 14.14 min^–1
- Km (DdlA; [8]): 360 ± 30.5 µM
- Vmax (DdlA; [8]): 20.29 μMmin^–1 and 19.15 ± 0.705 μMmin^–1

Compound: C[C@@H](N)C(=O)O [D-Ala, D-alanine]
- Kcat (DdlA): 568.79 ± 48.93 min^–1
- Vmax (DdlA; [8]): 28.44 ± 2.444 μMmin^–1

Compound: N[C@@H]1CON=C1O [DCS, D-cycloserine, reference compound]
- MIC (Mtb H37Rv [1]; [9]): 16 µg/mL (≈ 157 µM)
- SI (HepG2 cells [2]): 86.25
- Mtb load in mouse lungs (Mtb H37Rv [3]): did not yield any such treatment efficacy; also recorded: did not yield any antibacterial activity; also recorded: showed no antibacterial activity
- SI index (HepG2 cells [4]; human (HepG2) and green monkey (Vero)): about 80
- SI [5]: 127.75
- Ki (Mtb DdlA; [10]): 106 µM
- Ki (Mtb DdlA; [11]): 107 µM
- Ki (Mtb DdlA; Ki for DdlA (D-Ala)): 182 µM
- MICs to several clinical strains (clinical Mtb strains; range over clinical strains): did not show any inhibitory effect

Compound: OC1(c2ccc(OC(F)F)cc2)C[N+](c2ccccc2)=C2CCCCN21 (centres unmarked) [IMB-0283]
- MIC (Mtb H37Rv [1]; [9]): 0.5 µg/mL
- SI (HepG2 cells [2]): 230.8
- SI index (HepG2 cells [2]; cell line not specified (HepG2 and Vero)): greater than 200
- TC50 [6]: 249.8 µg/mL
- Mtb load in mouse lungs (Mtb H37Rv [3]): 4.40 log CFU/mL
- TC50 (HepG2 cells [4]; human, 2 days): 115.4 µg/mL
- Morphology of Mtb (Mtb H37Rv [7]; 12 h): typical long-rod morphology
- Morphology of Mtb (Mtb H37Rv [7]; 7 days): shrunken, shorter, and fragmented
- SI [5]: 499.6
- Ki (Mtb DdlA; [10]): 5.43 µM
- Ki (Mtb DdlA; [11]): 4.44 µM
- Ki (Mtb DdlA; Ki for DdlA (D-Ala)): 32.6 µM and 39.9 µM
- Inhibitory mode (Mtb DdlA; Lineweaver-Burk and Dixon plots): competed with both substrates of DdlA
- IC50 (Mtb DdlA; mean of n = 3): 6.16 µM
- IC50 (Mtb DdlA; printed in Figure 3B): 7.62 µM
- MIC (clinical Mtb strains; range over clinical strains, read-out: MICs to several clinical strains): 0.5 to 4 µg/mL
- MIC (clinical Mtb strains; strain FJ05060, S to INH, RMP, EMB, STR, CPM, KAN, OFX, read-out: MIC): 0.5 µg/mL
- MIC (clinical Mtb strains; strain FJ05120, R to INH, RMP, read-out: MIC): 2 µg/mL
- MIC (clinical Mtb strains; strain FJ05189, R to INH, RMP, read-out: MIC): 1 µg/mL
- MIC (clinical Mtb strains; strain FJ05195, R to INH, RMP, EMB, STR, KAN, OFX, S to CPM, read-out: MIC): 4 µg/mL
- MIC (clinical Mtb strains; strain FJ05349, S to INH, RMP, EMB, STR, CPM, KAN, OFX, read-out: MIC): 0.5 µg/mL
- MIC (clinical Mtb strains; strain xz, R to INH, RMP, STR, CPM, OFX, S to EMB, KAN, read-out: MIC): 4 µg/mL

Compound: NNC(=O)c1ccncc1 [INH, isoniazid]
- Reduction of MIC when combined with IMB-0283 (Mtb H37Rv [1]; H37Rv, IMB-0283 at 0.125 μg/mL): eightfold
- MIC when combined with IMB-0283 (Mtb H37Rv [1]; H37Rv, IMB-0283 at 0.125 μg/mL (0.25 × MIC)): 0.016 µg/mL
- MIC (Mtb H37Rv [1]; [9]): 0.125 µg/mL (≈ 0.911 µM)
- Mtb load in mouse lungs (Mtb H37Rv [3]): 3.29 log CFU/mL

Compound: CO[C@H]1/C=C/O[C@@]2(C)Oc3c(C)c(O)c4c(O)c(c(/C=N/N5CCN(C)CC5)c(O)c4c3C2=O)NC(=O)/C(C)=C\C=C\[C@H](C)[C@H](O)[C@@H](C)[C@@H](O)[C@@H](C)[C@H](OC(C)=O)[C@@H]1C [RMP, rifampin]
- MIC when combined with IMB-0283 (Mtb H37Rv [1]): 0.016 µg/mL
- MIC (Mtb H37Rv [1]; H37RV): 0.063 µg/mL (≈ 0.0766 µM)

Compound: (Mycobacterium tuberculosis H37Rv)
- Vmax (C[C@@H](N)C(=O)O): 28.4 µM/min
- kcat (C[C@@H](N)C(=O)O): 9.48 s⁻¹

— article PMC6974524 (Frontiers in Microbiology, 2020)
